According to paper PMC11005040, “Photoactivatable Ruthenium Complexes Containing Minimal Straining Benzothiazolyl-1,2,3-triazole Chelators for Cancer Treatment” (Inorganic Chemistry, 2024):
Where two headings read alike, the source gives them in different places.

Columns and labels:
CHO cells = test: Dark cytotoxic screening, MTT test, 48 h; format: cell-based; details: 48 h in the dark
Description: (§1) For dark cytotoxic screening, A2780, CHO, HeLa, and A375 cells were cultured in 96-well plates at a density of 5 × 10^3 cells/well in complete medium and incubated for 24 h at 310 K and 5% CO2 in a humidified incubator. Serial dilutions of tested compounds in cell culture media were then added at final concentrations in the range of 0 to 100 μM in a final volume of 100 μL/well (%v/v DMSO below 0.4%) for 48 h prior to MTT test. For photoactivation studies, HeLa and A375 cells were used. Treatments were added at final concentrations in the range of 0 to 500 μM. After 1 h incubation with the compounds, light irradiation treatments were applied using a LED photoreactor (Luzchem; Canada) fitted with LED lamps centered at 465 nm (final intensity 4 mW/cm^2) for 1 h. Dark control analogues were directly kept in the dark for 2 h. After incubation periods, cells were washed with saline PBS buffer and loaded with 50 μL of MTT solution (1 mg/mL) for additional 4 h, then removed and 50 μL DMSO was added to solubilize the purple formazan crystals formed in active cells. The absorbance was measured at 570 nm using a microplate reader (FLUOstar Omega) and the IC50 values were calculated based on the inhibitory rate curves using the next the equation [drawing 2] where I represents the percentage inhibition of viability observed, Imax is the maximal inhibitory effect, IC50 is the concentration that inhibits 50% of maximal growth, C is the concentration of the treatment, and n is the slope of the semilogarithmic dose–response sigmoidal curves. The nonlinear fitting was performed using SigmaPlot 14.0 software. Two independent experiments were performed with triplicate points per concentration level (n = 3).

A2780 cells = test: Dark cytotoxic screening, MTT test, 48 h; format: cell-based, human; details: 48 h in the dark
Description: as §1

HeLa cells [1] = test: Dark cytotoxic screening, MTT test, 48 h; format: cell-based, human; details: 48 h in the dark
Description: as §1

HeLa cells [2] = tested on: HeLa cells; set-up: method as in doi:10.1016/j.dyepig.2022.110905; details: λexc 405 nm; cited from earlier work
A375 cells [3] = test: Dark cytotoxic screening, MTT test, 48 h; format: cell-based, human; details: 48 h in the dark
Description: as §1

A375 cells [4] = test: Photoactivation studies (phototoxicity, MTT), dark vs blue light; format: cell-based, human
Description: as §1

HeLa cells [5] = test: as above; format: cell-based, human
Description: as §1

HeLa cells [6] = test: Cell uptake by confocal microscopy; format: cell-based, human; details: 15 μM, 2 h incubation; for Cellular uptake: λexc 450 nm
Description: HeLa cells were seeded onto Ibidi μ-slides at 10^4 cells/cm^2 in a complete medium and incubated for 24 h at 310 K and 5% CO2 in a humidified incubator. Compounds were added at indicated concentrations for 2 h. […]

HeLa cells [7] = test: Confocal microscopy imaging after blue light irradiation; format: cell-based, human; details: 15 μM
Description: HeLa cells were seeded onto Ibidi μ-slides at 10^4 cells/cm^2 in a complete medium and incubated for 24 h at 310 K and 5% CO2 in a humidified incubator. […] Cells were then washed with PBS twice and imaged under confocal microscopy (STELLARIS Leica Microsystems) using 405 nm excitation laser.

[8] = hypoxia (2% O2), 1 h incubation then blue light 465 nm, 4 mW/cm^2, 1 h, read-out: IC50 A375 blue light
[9] = hypoxia (2% O2), dark, read-out: IC50 A375 dark
[10] = normoxia (21% O2), 1 h incubation then blue light 465 nm, 4 mW/cm^2, 1 h, read-out: IC50 A375 blue light
[11] = normoxia (21% O2), dark 2 h, read-out: IC50 A375 dark
[12] = hypoxia (2% O2), 1 h incubation then blue light 465 nm, 4 mW/cm^2, 1 h, read-out: IC50 HeLa blue light
[13] = hypoxia (2% O2), dark, read-out: IC50 HeLa dark
[14] = normoxia (21% O2), 1 h incubation then blue light 465 nm, 4 mW/cm^2, 1 h, read-out: IC50 HeLa blue light
[15] = normoxia (21% O2), dark 2 h, read-out: IC50 HeLa dark

SMILES	IC50 (CHO cells)	IC50 (A2780 cells)	IC50 (HeLa cells [1])	IC50 (A375 cells [3])	P.I. A375 (IC50 dark/IC50 465 nm) (A375 cells [4]; hypoxia (2% O2))	IC50 (A375 cells [4]; [8])	IC50 (A375 cells [4]; [9])	P.I. A375 (IC50 dark/IC50 465 nm) (A375 cells [4]; normoxia)	IC50 (A375 cells [4]; [10])	IC50 (A375 cells [4]; [11])	P.I. HeLa (IC50 dark/IC50 465 nm) (HeLa cells [5]; hypoxia (2% O2))	IC50 (HeLa cells [5]; [12])	IC50 (HeLa cells [5]; [13])	P.I. HeLa (IC50 dark/IC50 465 nm) (HeLa cells [5]; normoxia)	IC50 (HeLa cells [5]; [14])	IC50 (HeLa cells [5]; [15])	Intracellular distribution (HeLa cells [6])	Cellular uptake (HeLa cells [6])	other results
[NH2][Pt]([NH2])([Cl])[Cl] [CDDP, cisplatin, reference compound]	7.8 ± 0.4 µM	1.9 ± 0.1 µM	21 ± 2 µM	–	–	–	–	–	–	–	–	–	–	–	–	–	–	–	–
CN(C)c1ccc(-n2cc(-c3nc4ccccc4s3)nn2)cc1 [L5]	–	–	–	–	–	–	–	–	–	–	–	–	–	–	–	–	–	–	Intracellular distribution (HeLa cells [2]): evenly distributed around cell cytoplasm but not within nuclei
Cc1ccc(-n2cc(-c3nc4ccccc4s3)nn2)cc1.O=S(=O)([O-])C(F)(F)F.O=S(=O)([O-])C(F)(F)F.[Ru+2].c1cnc2c(c1)ccc1cccnc12.c1cnc2c(c1)ccc1cccnc12 [Ru1, [Ru(phen)2(L1)][OTf]2]	> 100 µM	> 100 µM	> 100 µM	> 100 µM	>7.5	66.9 ± 6.1 µM	> 500 µM	>24.4	20.6 ± 1.5 µM	> 500 µM	>7.1	70.2 ± 5 µM	> 500 µM	>10.4	48 ± 3.4 µM	> 500 µM	–	–	–
FC(F)(F)c1ccc(-n2cc(-c3nc4ccccc4s3)nn2)cc1.O=S(=O)([O-])C(F)(F)F.O=S(=O)([O-])C(F)(F)F.[Ru+2].c1cnc2c(c1)ccc1cccnc12.c1cnc2c(c1)ccc1cccnc12 [Ru3, [Ru(phen)2(L3)][OTf]2]	> 100 µM	> 100 µM	> 100 µM	> 100 µM	–	> 100 µM	> 500 µM	>6.8	73.5 ± 4.3 µM	> 500 µM	>5.9	85.2 ± 4.4 µM	> 500 µM	>6.8	73.5 ± 4.2 µM	> 500 µM	–	–	–
O=S(=O)([O-])C(F)(F)F.O=S(=O)([O-])C(F)(F)F.O=[N+]([O-])c1ccc(-n2cc(-c3nc4ccccc4s3)nn2)cc1.[Ru+2].c1cnc2c(c1)ccc1cccnc12.c1cnc2c(c1)ccc1cccnc12 [Ru4, [Ru(phen)2(L4)][OTf]2]	> 100 µM	> 100 µM	> 100 µM	> 100 µM	>9.6	51.9 ± 2.4 µM	> 500 µM	>26.6	18.8 ± 3.7 µM	> 500 µM	>12.0	41.7 ± 2.7 µM	> 500 µM	>14.8	33.8 ± 5.5 µM	> 500 µM	across the cytoplasm in punctate deposits	excellent and rapid cellular uptake	–
CN(C)c1ccc(-n2cc(-c3nc4ccccc4s3)nn2)cc1.O=S(=O)([O-])C(F)(F)F.O=S(=O)([O-])C(F)(F)F.[Ru+2].c1cnc2c(c1)ccc1cccnc12.c1cnc2c(c1)ccc1cccnc12 [Ru5, [Ru(phen)2(L5)][OTf]2]	> 100 µM	> 100 µM	> 100 µM	> 100 µM	–	> 100 µM	> 500 µM	>18.5	27.1 ± 6.2 µM	> 500 µM	>8.7	57.2 ± 6.4 µM	> 500 µM	>12.0	41.8 ± 3.9 µM	> 500 µM	across the cytoplasm in punctate deposits	excellent and rapid cellular uptake	Cell cytotoxicity by imaging, 1 min irradiation (HeLa cells [7]; 1 h, then blue light 1 min): no cell cytotoxicity was observed; Cell cytotoxicity by imaging, 1 h irradiation (HeLa cells [7]; then blue light 1 h): discernible cell damage is evident
